Data reported in patent publication US20200390755A1, “COMPOUND FOR TREATING NERVOUS SYSTEM DISEASES AND USE THEREOF” (SHAANXI MICOT TECHNOLOGY CO., LTD., priority 2018, published 2020).
Marks after values point to notes of the source that are not given here.

Tests used:
[1] = system: N171-82Q HD mice; assay: High-altitude balance beam (5 mm) experiment 2, HD mice; format: in vivo, mouse; conditions: 5 mg/kg/d intragastric
Method: (§1) 7-week-old N171-82Q HD male mice were paired with female B6C3F1/J hybrid mice to obtain newborn mice. From 21 days of age, male mice were housed in separate cages. 0.5 cm of mouse tail tissue was removed to extract DNA to determine the genotype of the mouse, such that N171-82Q HD mice and WT mice needed for the experiment were obtained. The mice were randomly divided into WT Vehicle group (normal mice), WT test compound group (administration group of normal mice, 5 mg/kg/d, n=10), HD Vehicle group (blank group of HD mice, n=15), HD test compound group (administration groups 1-5 of HD mice, 5 mg/kg/d, n=10). The test compound was suspended in 1% CMC-Na solution and administered by intragastric administration until the end of the study. The weights of the mice were measured every week. Behavioral tests were performed at 12 weeks, 18 weeks, and 24 weeks of age to investigate motor function. At 20 weeks, 3 samples of tissue from each group were used for western blotting and immunohistochemistry. At 24 weeks, MRI scans were performed. At the end of the study, the effect of the test compound on the mortality of mice was evaluated.
The software Sigmaplot 13.0 was used for statistical analysis of the data, and the data of each group was expressed as mean standard error (x±SEM). Behavioral test results were analyzed using two-way (genotype and processing factor) ANOVA and post-ho tests, the comparison and statistics of weight data were performed using two-way (genotype and age) ANOVA of repeated measures, and mortality was counted using Kaplan-Meier method. Other measurement data were analyzed by one-way ANOVA. P<0.05 was considered statistically significant.
The motor function of mice was evaluated by the rotarod experiment and three types of balance beam experiments. The shorter the time for mouse to cross the balance beam, and the longer the time to drop, the stronger the coordination ability of the mouse.
A square balance beam with a length of 100 cm and a width of 11 mm was placed at a 45-degree angle to the horizontal ground. A black box (12×12×12 cm) was placed at the end of the balance beam, and the starting platform was illuminated by bright lights. Spacers were placed under the balance beam to provide cushioning in case that the animal falls off the beam. One hour before the test, the mice were trained to cross the beam three times at one-eighth, one-quarter, and full-length distances from the black box, respectively. If the mice stopped walking during training, they were gently pressed with long forceps on the tail to encourage movement. After the training experiment, the mice rested for at least one hour in an undisturbed environment. In the experiment, the maximum time for each mouse to cross the balance beam was set to 60 seconds. If the time for crossing the beams was greater than 60 seconds, it was recorded as 60 seconds.
a square balance beam with a length of 80 cm and a width of 5 mm was place at a height of about 50 cm from the ground. The following steps are the same as the slope balance beam experiment.

[2] = system: N171-82Q HD mice; assay: In vivo MRI scan and brain volume measurement, HD mice; design: species or system mouse; conditions: 5 mg/kg/d, administered until 24 weeks, n = 4
Method: as §1
The WT Vehicle group, WT test compound group, HD Vehicle group and HD test compound group were administered until 24 weeks, and 4 mice in each group were taken for in vivo MRI scanning and brain volume measurement. A 9.4 T MRI scanner equipped with three-axis gradient and animal imaging probes was used. The mice were anesthetized with 1% isoflurane. The breath of mice was monitored, and constant temperature was maintained throughout the scan. Three-dimensional T2 weighted fast spin echo sequence technology was used to obtain images. The imaging resolution and contrast of this technology were sufficient to automatically describe the volume of the mouse brain and substructures. The parameters were as follows: echo time (TE)/repetition time (TR) ^1/440/700 ms, resolution ^1/40.1×0.1×0.1 mm, echo train length ^1/44, average number ^1/42 and flip angle ^1/4408. The instrument contained a powerful linux cluster that can encode and run large-scale deformation diffusion metric maps (LDDMM) to obtain high-intensity standardized images. These transformations encoded morphological differences between images and analyzed based on deformation morphological measurements (DBM) to detect regional changes in brain volume. The volume of the whole brain (Brain), […] was analyzed.
The MRI scanning technology was used to analyze the morphological differences between the experimental object and the template image, and the LDDMM method was used to calculate and analyze the brain tissue structure of the mouse. The statistical results of the brain volume, striatum volume, and neurocortex volume of the test compound Example 1 are shown in FIG. 3, in which FIG. 3A is the statistical results of the whole brain volume, and FIG. 3B is the statistical results of striatum volume, and FIG. 3C is the statistical results of neurocortex volume.

| SMILES | Time for crossing the beams, high-altitude balance beam (5 mm) ([1]; 12 w) [s] | Time for crossing the beams, high-altitude balance beam (5 mm) ([1]; 18 w) [s] | Time for crossing the beams, high-altitude balance beam (5 mm) ([1]; 24 w) [s] | MRI volume, Neurocortex [2] | MRI volume, Striatum [2] | MRI volume, Whole brain [2] |
| --- | --- | --- | --- | --- | --- | --- |
| O=c1cc(-c2ccc(N3CCCCC3)cc2)oc2c(O)c(O)ccc12 [Example 1, 7,8-dihydroxy-2-(4-(piperidin-1-yl)phenyl)-4H-chromen-4-one] | 13.09 ± 4.39 | 12.09 ± 3.27 | 13.91 ± 3.33 | 18.90 ± 0.341** mm^3 | 79.47 ± 1.079** mm^3 | 460.47 ± 2.145** mm^3 |
| COc1ccc2c(=O)cc(-c3ccc(N4CCCCC4)cc3)oc2c1OC [Example 2, 7,8-dimethoxy-2-(4-(piperidin-1-yl)phenyl)-4H-chromen-4-one] | 12.13 ± 4.97 | 13.96 ± 2.74 | 14.32 ± 5.44 | 18.68 ± 0.598** mm^3 | 79.10 ± 0.976** mm^3 | 449.97 ± 7.279** mm^3 |
| CN(C)C1CCN(c2ccc(-c3cc(=O)c4ccc(O)c(O)c4o3)cc2)CC1 [Example 3, 2-(4-(4-(dimethylamino)piperidin-1-yl)phenyl)-7,8-dihydroxy-4H-chromen-4-one] | 12.20 ± 4.45 | 12.99 ± 4.72 | 13.11 ± 5.30 | 19.05 ± 0.997** mm^3 | 80.34 ± 1.238** mm^3 | 465.33 ± 9.218** mm^3 |
| CC1(C)CCN(c2ccc(-c3cc(=O)c4ccc(O)c(O)c4o3)cc2)CC1 [Example 4, 2-(4-(4,4-dimethylpiperidin-1-yl)phenyl)-7,8-dihydroxy-4H-chromen-4-one] | 13.22 ± 4.59 | 13.88 ± 5.63 | 15.92 ± 7.87 | 18.59 ± 0.899** mm^3 | 79.03 ± 1.834** mm^3 | 461.31 ± 3.451** mm^3 |
| CC1CC(C)CN(c2ccc(-c3cc(=O)c4ccc(O)c(O)c4o3)cc2)C1 (stereo not drawn) [Example 5, 2-(4-(3,5-dimethylpiperidin-1-yl)phenyl)-7,8-dihydroxy-4H-chromen-4-one] | 14.25 ± 5.34 | 14.98 ± 5.05 | 16.80 ± 5.97 | 19.01 ± 0.557** mm^3 | 79.43 ± 0.898** mm^3 | 462.19 ± 2.178** mm^3 |
